{
  "source": "patent US20180311342A1",
  "about": "“IMMUNOSTIMULATING AGENT” (AJINOMOTO CO., INC., priority 2017, published 2018)",
  "format_in_all_cases": "in vivo, BALB/c mice",
  "key": {"[1]": {"tested_on": "anti-OVA-specific IgE antibody", "test": "Allergy inducing activity test: anti-OVA-specific IgE antibody in serum of OVA-immunized mice (DS mouse IgE ELISA (OVA) kit)", "experimental": "(§1) 8-Week-old female BALB/c mice were divided into groups (N=6), and each group was primarily immunized by dorsal-subcutaneous administration of (1) ovalbumin (OVA) (5 μg) dissolved in saline as an antigen (OVA single administration group), (2) OVA 5 μg and Addavax™ (mixed with saline at 1:1) dissolved in saline (Addavax™ administration group) as positive control adjuvant, (3) OVA 5 μg and SZ137 0.256 μmol dissolved or dispersed in 5% α-cyclodextrin (hereinafter to be simply referred to as αCD)-added saline (SZ137 administration group), (4) OVA (5 μg) and SZ138 (0.256 μmol) dissolved or dispersed in 5% αCD-added saline (SZ138 administration group), (5) OVA (5 μg) and SZ142 (0.256 μmol) dissolved or dispersed in 5% αCD-added saline (SZ142 administration group), (6) OVA (5 μg) and SZ144 (0.256 μmol) dissolved or dispersed in 5% αCD-added saline (SZ144 administration group), (7) OVA (5 μg) and SZ145 (0.256 μmol) dissolved or dispersed in 5% αCD-added saline (SZ145 administration group), (8) OVA (5 μg) and SZ146 (0.256 μmol) dissolved or dispersed in 5% αCD-added saline (SZ146 administration group), (9) OVA (5 μg) and SZ147 (0.256 μmol) dissolved or dispersed in 5% αCD-added saline (SZ147 administration group), (10) OVA (5 μg) and SZ148 (0.256 μmol) dissolved or dispersed in 5% αCD-added saline (SZ148 administration group), each per mouse. Two week later, the secondary immunization was carried out by dorsal-subcutaneous administration of solutions or dispersions similar to those of the above-mentioned (1)-(10) again. Two weeks from the secondary immunization, the whole blood was extracted under anesthesia, and the obtained serum sample was measured for anti-OVA-specific IgG1 subclass antibody, anti-OVA-specific IgG2a subclass antibody, and anti-OVA-specific IgE antibody.\nThe measurement method of the anti-OVA-specific IgE antibody in Experimental Example 1 and the following Experimental Examples 2-5, 8-10 is as follows.\nDS mouse IgE ELISA (OVA) kit manufactured by DS Pharma Biomedical Co., Ltd. was used. The protocol is briefly shown below.\nThe serum sample and a standard reagent for drawing an analytical curve are diluted with a buffer and, after stirring, left standing at room temperature for 10 min. The sample and the standard solution are added to a plate bound with an IgE capture antibody in advance and, after stirring, the mixture is left standing at room temperature for 60 min. The mixture is washed three times with wash, HRP-labeled OVA is added, and the mixture is left standing at room temperature for 30 min. The mixture is washed three times with wash, a substrate solution is added, and the mixture is left standing in dark at room temperature for 30 min. A reaction quenching liquid is added, the mixture is stirred, and the absorbance (OD Value=450 nm) is immediately measured.\nThe standard used is one attached to the kit, the standard curve is drawn from the measured OD Value, and the concentration is calculated. […]"}, "[2]": {"tested_on": "anti-OVA-specific IgG1 subclass antibody", "test": "Adjuvant activity test: anti-OVA-specific IgG1 subclass antibody in serum of OVA-immunized mice (ELISA)", "conditions": "after secondary immunization, serum 2 weeks later; OVA 5 μg + compound 0.256 μmol in 5% αCD-added saline (Addavax mixed with saline at 1:1), dorsal-subcutaneous; compared to OVA single administration group", "experimental": "as §1\n(§2) The measurement method of the anti-OVA-specific IgG1 subclass antibody and anti-OVA-specific IgG2a subclass antibody in Experimental Example 1 and the following Experimental Examples 2-10 is as follows.\n(§3) To a 96 well plate was added 5 μg/ml OVA at 100 µl/well, and the mixture was incubated at 4° C. overnight. After incubation, the mixture was washed three times with 200 μl of PBS-T (PBS (phosphate buffered saline)+0.05% (v/v) Tween 20) per well, and blocked with 100 μl of 5% FCS (fetal calf serum)/PBS solution per well at room temperature for 1-2 hr. Thereafter, the mixture was washed three times with PBS-T (200 μl/well), a diluted serum sample (100 l/well) or the same amount of 5% FCS/PBS solution as a control was added, and the mixture was incubated at 37° C. for 1 hr. To calculate concentration of the antibody, the standard of an anti-OVA-specific IgG1 subclass antibody diluted with 2% FCS/PBS solution was added at 100 ng/ml, 50 ng/ml, 25 ng/ml, 12.5 ng/ml, 6.25 ng/ml, 3.125 ng/ml, 1.56 ng/ml, 0.781 ng/ml, 0.391 ng/ml, 0.195 ng/ml, 0.098 ng/ml, 0 ng/ml, per 1 well. When an anti-OVA-specific IgG2a subclass antibody was measured, the standard of an anti-OVA-specific IgG2a subclass antibody was added at 50 ng/ml, 25 ng/ml, 12.5 ng/ml, 6.25 ng/ml, 3.125 ng/ml, 1.56 ng/ml, 0.781 ng/ml, 0.391 ng/ml, 0.195 ng/ml, 0.098 ng/ml, 0.049 ng/ml, 0 ng/ml, per 1 well. Thereafter, similar to the samples, the mixture was washed five times with PBS-T (200 μl/well), a diluted biotinylated anti-mouse IgG1 antibody and IgG2a antibody were added (100 μl/well), and the mixture was incubated at 37° C. for 45 min. Thereafter, the mixture was washed five times with PBS-T (200 μl/well), a diluted anti-biotin-HRP antibody was added (100 μl/well), and the mixture was incubated at 37° C. for another 30 min. Thereafter, the mixture was washed five times with PBS-T (200 μl/well), TMB substrate solution was added (100 μl/well), and the mixture was incubated at room temperature for 10-15 min. Thereafter, a reaction quenching liquid (2N sulfuric acid solution) was added (50 l/well) to discontinue a color developing reaction, and the absorbance (OD Value=450 nm) was measured by a microplate reader. […]"}, "[3]": {"tested_on": "anti-OVA-specific IgG2a subclass antibody", "test": "Adjuvant activity test: anti-OVA-specific IgG2a subclass antibody in serum of OVA-immunized mice (ELISA)", "conditions": "after secondary immunization, serum 2 weeks later; OVA 5 μg + compound 0.256 μmol in 5% αCD-added saline (Addavax mixed with saline at 1:1), dorsal-subcutaneous; compared to OVA single administration group", "experimental": "as §1, §2, §3"}},
  "data": [
    {"smiles": "CCCCCCCCCCCCCCCCCC(=O)N[C@@H](CCCNC(=N)N)C(=O)NCCCCCCCCCCCC.Cl", "note": "[SZ137, N-[(1S)-1-(dodecylcarbamoyl)-4-guanidino-butyl]octadecanamide hydrochloride]", "values": [
      {"measurement": "anti-OVA-specific IgE antibody production", "setting": "[1]; after secondary immunization, OVA 5 μg + compound 0.256 μmol in 5% αCD-added saline (Addavax mixed with saline at 1:1), dorsal-subcutaneous, compared to OVA single administration group", "value": "an increase in the anti-OVA-specific IgE antibody production was not observed"},
      {"measurement": "allergy inducing activity as compared to Addavax", "setting": "[1]; conclusion from IgE after secondary immunization, compound in 5% αCD-added saline", "value": "may have a lower allergy inducing activity"},
      {"measurement": "anti-OVA-specific IgG1 subclass antibody production", "setting": "[2]", "value": "significantly increased"},
      {"measurement": "anti-OVA-specific IgG2a subclass antibody production", "setting": "[3]", "value": "significantly increased"}
    ]}
  ]
}
